For test [1], the system named is HeLa S-3 human cervical carcinoma cell line. The test can be described thus: HeLa GI50 determination (SRB). The settings on record: Homo sapiens, HeLa S3, 48 h, read-out: HeLa Cells GI50. It counts as cell-based. On the procedure: Growth inhibition (GI50) values were measured on the human cervical carcinoma cell line, HeLa S-3, which were selected for growth on plastic. The HeLa cell assay was based on the description of Skehan et al., J. Natl. Cancer Inst., 82:1107-12 (1990), which is hereby incorporated by reference in its entirety. HeLa cells were plated at 2×10^4 cells/well in 96 well plates. One day later, a control plate was fixed by the addition of TCA to 5%. After five rinses with tap water, the plate was air-dried and stored at 4° C. Test compounds were added to the remaining plates at 10-fold dilutions. Two days later, all plates were fixed as described above. Cells were then stained by the addition of 100 μL per well of 0.4% sulforhodamine B (SRB) in 1% acetic acid for 30 min at 4° C. Wells were then quickly rinsed 5× with 1% acetic acid and allowed to air dry. The SRB was then solubilized by the addition of 100 μL per well of unbuffered 10 mM Tris base. Dye was quantified by measuring absorbance at 490 nm on a Molecular Devices microplate reader. Growth inhibition was calculated according to the following equation: GI=100×(T−T0)/(C−T0), where the optical density (OD) of the test well after 2 days of treatment was T, the OD of the wells in the control plate on day 0 was T0 and C was the OD of untreated wells. Plots of percent growth inhibition versus inhibitor concentration were used to determine the GI50.

Test [2] concerns MCF-7 human breast carcinoma line. The test can be described thus: MCF-7 GI50 determination (crystal violet). The class given is cell-based. The settings on record: Homo sapiens, MCF7, 96 h, read-out: MCF-7 Cells GI50. As to the method: Growth inhibition (GI50) values were measured on the human breast carcinoma line, MCF-7. MCF-7 cells were plated at 2×10^4 cells/well in 96 well plates and grown for 24 hours in drug free media. On day 2, test compounds were added to the plates at 10-fold dilutions. Four days later, cells were fixed by the addition of glutaraldehyde to 0.75%. After 30 min, the fixed cells were extensively rinsed with distilled water and dried at room temperature for one hour. The cells were then stained with a 0.2% crystal violet solution for one hour at room temperature. Unbound stain was removed by ten rinses with tap water and plates were allowed to air dry for 30 min. The crystal violet was then solubilized by the addition of 10% acetic acid for 15 min and quantified by measuring absorbance at 570 nm on a Molecular Devices microplate reader. Growth inhibition was calculated according to the following equation: GI=[…], where the optical density (OD) of the test well after 4 days of treatment was T, the OD of the wells in the control plate on day 0 was T0. Plots of percent growth inhibition versus inhibitor concentration were used to determine the GI50.

Setting [3] is: HeLa S-3, 2 days of treatment, SRB.
Where [4] appears, read: MCF-7, 4 days of treatment, crystal violet.

Read-outs that look alike come from different tables or passages of the source.

One may read the GI50 as the concentration giving 50% growth inhibition. For the molecule `CCC1=C[C@H]2CN(C1)Cc1c([nH]c3ccc([S+]([O-])CCCO)cc13)[C@@](C(=O)OC)(c1cc3c(cc1OC)N(C)[C@H]1[C@@](O)(C(=O)OC)[C@H](OC(C)=O)C4C(CC)=CCN5CC[C@]31[C@H]45)C2` (some centres unmarked) [Example 20, 11′-(3-hydroxypropylsulfinyl)vinorelbine], the results for the GI50 in test [1] (setting [3]) and in test [2] (setting [4]) were 40 nM and 300 nM, respectively.

As to `CCC1=C[C@H]2CN(C1)Cc1c([nH]c3ccc(C)cc13)[C@@](C(=O)OC)(c1cc3c(cc1OC)N(C)[C@H]1[C@@](OC)(C(=O)OC)[C@H](OC(C)=O)C4C(CC)=CCN5CC[C@]31[C@H]45)C2` (some centres unmarked) [Example 33, 3,11′-dimethyl vinorelbine], the values for the GI50 in test [1] (setting [3]) and in test [2] (setting [4]) were 30 nM and 50 nM, respectively.

Regarding `CCC1=C[C@H]2CN(C1)Cc1c([nH]c3ccc(Sc4ccccc4)cc13)[C@@](C(=O)OC)(c1cc3c(cc1OC)N(C)[C@H]1[C@@](O)(C(=O)OC)[C@H](OC(C)=O)C4C(CC)=CCN5CC[C@]31[C@H]45)C2` (some centres unmarked) [Example 17, 11′-(phenysulfanyl) vinorelbine], the results for the GI50 in test [1] (setting [3]) and in test [2] (setting [4]) were 20 nM and 300 nM, respectively.

Consider `CCC1=C[C@H]2CN(C1)Cc1c([nH]c3ccc(SCCCO)cc13)[C@@](C(=O)OC)(c1cc3c(cc1OC)N(C)[C@H]1[C@@](O)(C(=O)OC)[C@H](OC(C)=O)C4C(CC)=CCN5CC[C@]31[C@H]45)C2` (some centres unmarked) [Example 13, 11′-(3-hydroxypropylsulfanyl)vinorelbine], for which the figures for the GI50 in test [1] (setting [3]) and in test [2] (setting [4]) were 20 nM and 30 nM, respectively.

Regarding `CCCC(=O)/C=C/c1ccc2[nH]c3c(c2c1)CN1CC(CC)=C[C@@H](C1)C[C@]3(C(=O)OC)c1cc2c(cc1OC)N(C)[C@H]1[C@@](O)(C(=O)OC)[C@H](OC(C)=O)C3C(CC)=CCN4CC[C@]21[C@H]34` (some centres unmarked) [Example 4, 11′-(3-oxohex-1-enyl) vinorelbine], the GI50 in test [1] (setting [3]) was 400 nM; in test [2] (setting [4]) it was 300 nM.

Consider `CCC1=C[C@H]2CN(C1)Cc1c([nH]c3ccc(SCc4ccccc4F)cc13)[C@@](C(=O)OC)(c1cc3c(cc1OC)N(C)[C@H]1[C@@](O)(C(=O)OC)[C@H](OC(C)=O)C4C(CC)=CCN5CC[C@]31[C@H]45)C2` (some centres unmarked) [Example 15, 11′-(2-fluorobenzylsulfanyl)vinorelbine], for which the GI50 worked out at 200 nM in test [1] (setting [3]) and 400 nM in test [2] (setting [4]).

Consider `CCC1=C[C@H]2CN(C1)Cc1c([nH]c3ccc(Nc4ccc(OC)cc4)cc13)[C@@](C(=O)OC)(c1cc3c(cc1OC)N(C)[C@H]1[C@@](O)(C(=O)OC)[C@H](OC(C)=O)C4C(CC)=CCN5CC[C@]31[C@H]45)C2` (some centres unmarked) [Example 36, 11′-(4-methoxyphenylamino)vinorelbine], for which the GI50 in test [1] (setting [3]) came out at 300 nM; in test [2] (setting [4]) it was 400 nM.

For the molecule `C=Cc1ccc2[nH]c3c(c2c1)CN1CC(CC)=C[C@@H](C1)C[C@]3(C(=O)OC)c1cc2c(cc1OC)N(C)[C@H]1[C@@](O)(C(=O)OC)[C@H](OC(C)=O)C3C(CC)=CCN4CC[C@]21[C@H]34` (some centres unmarked) [Example 3, 11′-vinylvinorelbine], the values for the GI50 in test [1] (setting [3]) and in test [2] (setting [4]) were 3 nM and 7 nM, respectively.

As for `CCC1=C[C@H]2CN(C1)Cc1c([nH]c3ccc(SCC(=O)OC)cc13)[C@@](C(=O)OC)(c1cc3c(cc1OC)N(C)[C@H]1[C@@](O)(C(=O)OC)[C@H](OC(C)=O)C4C(CC)=CCN5CC[C@]31[C@H]45)C2` (some centres unmarked) [Example 9, 11′-(methoxycarbonylmethylsulfanyl) vinorelbine], the GI50 in test [1] (setting [3]) worked out at 20 nM; in test [2] (setting [4]), 30 nM.

Turning to `CCC1=C[C@H]2CN(C1)Cc1c([nH]c3ccc(C(=O)OCC(Cl)(Cl)Cl)cc13)[C@@](C(=O)OC)(c1cc3c(cc1OC)N(C)[C@H]1[C@@](O)(C(=O)OC)[C@H](OC(C)=O)C4C(CC)=CCN5CC[C@]31[C@H]45)C2` (some centres unmarked) [Example 28, 11′-(2,2,2-trichloroethoxycarbonyl) vinorelbine], the GI50 in test [1] was 300 nM; in test [2] it was above 1000 nM.

With `CCC1=C[C@H]2CN(C1)Cc1c([nH]c3ccc(I)cc13)[C@@](C(=O)OC)(c1cc3c(cc1OC)N(C)[C@H]1[C@@](OC)(C(=O)OC)[C@H](OC(C)=O)C4C(CC)=CCN5CC[C@]31[C@H]45)C2` (some centres unmarked) [Example 34, 3-methyl-11′-iodo vinorelbine], the GI50 in test [1] (setting [3]) and in test [2] (setting [4]) was 30 nM in each case.

As for `CCC1=C[C@H]2CN(C1)Cc1c([nH]c3ccc(SCCCCO)cc13)[C@@](C(=O)OC)(c1cc3c(cc1OC)N(C)[C@H]1[C@@](O)(C(=O)OC)[C@H](OC(C)=O)C4C(CC)=CCN5CC[C@]31[C@H]45)C2` (some centres unmarked) [Example 12, 11′-(4-hydroxybutylsulfanyl)vinorelbine], the GI50 in test [1] (setting [3]) is 20 nM; in test [2] (setting [4]), 40 nM.

Regarding `CCC1=C[C@H]2CN(C1)Cc1c([nH]c3ccc(C#CCOC)cc13)[C@@](C(=O)OC)(c1cc3c(cc1OC)N(C)[C@H]1[C@@](O)(C(=O)OC)[C@H](OC(C)=O)C4C(CC)=CCN5CC[C@]31[C@H]45)C2` (some centres unmarked) [Example 24, 11′-(3-methoxypropynyl)vinorelbine], the GI50 in test [1] (setting [3]) was determined as 100 nM; in test [2] (setting [4]), 300 nM.

With `CCC1=C[C@H]2CN(C1)Cc1c([nH]c3ccc(N)cc13)[C@@](C(=O)OC)(c1cc3c(cc1OC)N(C)[C@H]1[C@@](O)(C(=O)OC)[C@H](OC(C)=O)C4C(CC)=CCN5CC[C@]31[C@H]45)C2` (some centres unmarked) [Example 35, 11′-aminovinorelbine], the GI50 was 300 nM in test [1] (setting [3]) and 600 nM in test [2] (setting [4]).

Turning to `CCC1=C[C@H]2CN(C1)Cc1c([nH]c3ccc(C(=O)OC)cc13)[C@@](C(=O)OC)(c1cc3c(cc1OC)N(C)[C@H]1[C@@](O)(C(=O)OC)[C@H](OC(C)=O)C4C(CC)=CCN5CC[C@]31[C@H]45)C2` (some centres unmarked) [Example 27, 11′-(methoxycarbonyl) vinorelbine], the GI50 in test [1] (setting [3]) was 30 nM; in test [2] (setting [4]), 50 nM.

As for `CCC1=C[C@H]2CN(C1)Cc1c([nH]c3ccc(C#N)cc13)[C@@](C(=O)OC)(c1cc3c(cc1OC)N(C)[C@H]1[C@@](O)(C(=O)OC)[C@H](OC(C)=O)C4C(CC)=CCN5CC[C@]31[C@H]45)C2` (some centres unmarked) [Example 25, 11′-cyanovinorelbine], the GI50 came out at 1 nM in test [1] (setting [3]) and 6 nM in test [2] (setting [4]).

Take `CCC1=C[C@H]2CN(C1)Cc1c([nH]c3ccc(-c4c(C)noc4C)cc13)[C@@](C(=O)OC)(c1cc3c(cc1OC)N(C)[C@H]1[C@@](O)(C(=O)OC)[C@H](OC(C)=O)C4C(CC)=CCN5CC[C@]31[C@H]45)C2` (some centres unmarked) [Example 32, 11′-(3,5-dimethylisoxazol-4yl)vinorelbine]: the GI50 in test [1] (setting [3]) came out at 300 nM; in test [2] (setting [4]) it was 400 nM.

For the molecule `CCC1=C[C@H]2CN(C1)Cc1c([nH]c3ccc(/C=C/C(=O)O)cc13)[C@@](C(=O)OC)(c1cc3c(cc1OC)N(C)[C@H]1[C@@](O)(C(=O)OC)[C@H](OC(C)=O)C4C(CC)=CCN5CC[C@]31[C@H]45)C2` (some centres unmarked) [Example 6, 11′-(carboxyvinyl) vinorelbine], the results for the GI50 in test [1] (setting [3]) and in test [2] (setting [4]) were 800 nM and above 1000 nM, respectively.

`CCC1=C[C@H]2CN(C1)Cc1c([nH]c3ccc(Sc4cccc(O)c4)cc13)[C@@](C(=O)OC)(c1cc3c(cc1OC)N(C)[C@H]1[C@@](O)(C(=O)OC)[C@H](OC(C)=O)C4C(CC)=CCN5CC[C@]31[C@H]45)C2` (some centres unmarked) [Example 18, 11′-(3-hydroxyphenysulfanyl)vinorelbine]: the results for the GI50 in test [1] (setting [3]) and in test [2] (setting [4]) were 30 nM and 300 nM, respectively.

For the molecule `CCCCC#Cc1ccc2[nH]c3c(c2c1)CN1CC(CC)=C[C@@H](C1)C[C@]3(C(=O)OC)c1cc2c(cc1OC)N(C)[C@H]1[C@@](O)(C(=O)OC)[C@H](OC(C)=O)C3C(CC)=CCN4CC[C@]21[C@H]34` (some centres unmarked) [Example 22, 11′-hexynylvinorelbine], the figures for the GI50 in test [1] (setting [3]) and in test [2] (setting [4]) were 40 nM and 50 nM, respectively.

On to `CCC1=C[C@H]2CN(C1)Cc1c([nH]c3ccc(S)cc13)[C@@](C(=O)OC)(c1cc3c(cc1OC)N(C)[C@H]1[C@@](O)(C(=O)OC)[C@H](OC(C)=O)C4C(CC)=CCN5CC[C@]31[C@H]45)C2` (some centres unmarked) [Example 8, 11′-thiovinorelbine], for which the GI50 was determined as 40 nM in test [1] (setting [3]) and 60 nM in test [2] (setting [4]).

Take `CCC1=C[C@H]2CN(C1)Cc1c([nH]c3ccc(SCCC(=O)OC)cc13)[C@@](C(=O)OC)(c1cc3c(cc1OC)N(C)[C@H]1[C@@](O)(C(=O)OC)[C@H](OC(C)=O)C4C(CC)=CCN5CC[C@]31[C@H]45)C2` (some centres unmarked) [Example 7, 11′-(methoxycarbonylethylsulfanyl) vinorelbine]: the GI50 came to 200 nM in test [1] (setting [3]) and 400 nM in test [2] (setting [4]).
